Results published in patent publication US20110294855A1, “Active Compound Combinations” (BAYER CROPSCIENCE AG, priority 2009, published 2011).

Test system: Microdochium nivale
Assay: Microdochium nivale test (lawn)/protective
Format: in vivo
Conditions: lawn (100% Agrostis stolonifera), preventive application at 2000, 1000, 500 and 100 g/ha, inoculation 24 hours later, scoring after 5, 7, 14 and 21 days
Method: Microdochium Nivale Test (Lawn)/Protective
Lawn seed (100% Agrostis stolonifera) was sown in dishes of the dimensions 38 cm×15 cm×9 cm. 7 days after sowing, the lawn was cut prior to preventive guanidinium hydroxide application at application rates of 2000, 1000, 500 and 100 g/ha. The water application rates were 1000 l/ha (converted). 24 hours after the preventive application of the active compound, the lawn was inoculated by placing of wheat grains infected with Microdochium nivale. In each case 3 wheat grains were placed into a single dish. Scoring of the subsequent fungal growth in the lawn dishes was carried out after 5, 7, 14 and 21 days. In the dishes which had been treated with guanidinium hydroxide, an inhibition of the growth of Microdochium nivale of up to 30% (Abbott) was observed.

N=C(N)N.O [guanidinium hydroxide]
inhibition of the growth of Microdochium nivale (Abbott): up to 30%
